Laboratory results reported in patent publication US9839629B2, “Inhibitors of the renal outer medullary potassium channel” (Merck Sharp & Dohme Corp., priority 2013, dated 2017).

biological target: T1, ROMK (Kir1.1) channel (Homo sapiens, UniProt P48048); test: Thallium Flux Assay; type: cell-based
T1 sequence (P48048 1-391): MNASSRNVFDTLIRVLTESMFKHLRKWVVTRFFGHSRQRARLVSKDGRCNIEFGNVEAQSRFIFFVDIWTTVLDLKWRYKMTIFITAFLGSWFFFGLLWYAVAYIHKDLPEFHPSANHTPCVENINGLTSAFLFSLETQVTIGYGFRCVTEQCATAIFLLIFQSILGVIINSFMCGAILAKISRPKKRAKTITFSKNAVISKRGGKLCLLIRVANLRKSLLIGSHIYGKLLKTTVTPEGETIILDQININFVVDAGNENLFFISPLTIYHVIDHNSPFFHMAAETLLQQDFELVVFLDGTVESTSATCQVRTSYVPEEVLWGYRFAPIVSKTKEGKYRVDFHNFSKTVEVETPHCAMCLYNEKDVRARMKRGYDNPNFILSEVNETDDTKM
Experimental: A Thallium Flux Assay was performed on each of the final product compounds in the Examples. When the final product of an Example was an HCl salt, the salt was run in the Assay. This assay has been described previously; see, e.g., PCT Published Application WO 2013/062900.

| SMILES | IC50 |
| --- | --- |
| Cc1c([C@@H](O)CN2CCC3(CC2)CCN(C2=CC(=O)OC2)C(C)C3)ccc2c1COC2=O (single isomer, unassigned) [Example 32] | 49 nM |
| Cc1c([C@@H](O)CN2CCC3(CC2)CCN(C2=CC(=O)OC2)C(C)C3)ccc2c1COC2=O (single isomer, unassigned) [Example 33] | 42 nM |
| Cc1cc(-n2cnnn2)cnc1C(O)CN1CCC2(CC1)CCN(C1=CC(=O)OC1)CC2 (stereo in doubt) [Example 21, (S)-4-(9-(2-hydroxy-2-(3-methyl-5-(1H-tetrazol-1-yl)pyridin-2-yl)ethyl)-3,9-diazaspiro[5.5]undecan-3-yl)furan-2(5H)-one] | 181 nM |
| Cc1nc(-n2cnnn2)ccc1[C@@H](O)CN1CCC2(CC1)CCN(C1=C(C3CC3)C(=O)OC1)CC2 (stereo in doubt) [Example 43, 3-cyclopropyl-4-(9-(2-hydroxy-2-(2-methyl-6-(1H-tetrazol-1-yl)pyridin-3-yl)ethyl)-3,9-diazaspiro[5.5]undecan-3-yl)furan-2(5H)-one] | 16 nM |
| O=C1C=C(N2CCC3(CCN(CCc4ccc5c(c4)COC5=O)CC3)CC2)CO1 [Example 1, 5-(2-(9-(5-oxo-2,5-dihydrofuran-3-yl)-3,9-diazaspiro[5.5]undecan-3-yl)ethyl)isobenzofuran-1(3H)-one] | 17 nM |
| Cc1c(CCN2CCC3(CC2)CCN(C2=CC(=O)OC2)CC3)ccc2c1COC2=O [Example 2, 4-methyl-5-(2-(9-(5-oxo-2,5-dihydrofuran-3-yl)-3,9-diazaspiro[5.5]undecan-3-yl)ethyl)isobenzofuran-1(3H)-one] | 31 nM |
| Cc1c(CCN2CCC3(CC2)CCN(c2c(C)c(=O)c2=O)CC3)ccc2c1COC2=O [Example 3, 3-methyl-4-(9-(2-(4-methyl-1-oxo-1,3-dihydroisobenzofuran-5-yl)ethyl)-3,9-diazaspiro[5.5]undecan-3-yl)cyclobut-3-ene-1,2-dione] | 93 nM |
| CO[C@@H](CN1CCC2(CC1)CCN(c1c(C)c(=O)c1=O)CC2)c1ccc2c(c1C)COC2=O [Example 4, (R)-3-(9-(2-methoxy-2-(4-methyl-1-oxo-1,3-dihydroisobenzofuran-5-yl)ethyl)-3,9-diazaspiro[5.5]undecan-3-yl)-4-methylcyclobut-3-ene-1,2-dione] | 230 nM |
| Cc1c([C@H](O)CN2CCC3(CC2)CCN(C2=CC(=O)OC2)CC3)ccc2c1COC2=O [Example 5, (S)-5-(1-hydroxy-2-(9-(5-oxo-2,5-dihydrofuran-3-yl)-3,9-diazaspiro[5.5]undecan-3-yl)ethyl)-4-methylisobenzofuran-1(3H)-one] | 63 nM |
| CC1=C(N2CCC3(CCN(C[C@H](O)c4cccc(-n5cnnn5)n4)CC3)CC2)COC1=O [Example 6A, (S)-4-(9-(2-(6-(1H-tetrazol-1-yl)pyridin-2-yl)-2-hydroxyethyl)-3,9-diazaspiro[5.5]undecan-3-yl)-3-methylfuran-2(5H)-one] | 22 nM |
| CC1=C(N2CCC3(CCN(C[C@@H](O)c4cccc(-n5cnnn5)n4)CC3)CC2)COC1=O [Example 6B, (R)-4-(9-(2-(6-(1H-tetrazol-1-yl)pyridin-2-yl)-2-hydroxyethyl)-3,9-diazaspiro[5.5]undecan-3-yl)-3-methylfuran-2(5H)-one] | 20 nM |
| CC1=C(N2CCC3(CCN(C[C@H](O)c4ccc5c(c4C)COC5=O)CC3)CC2)COC1=O [Example 7, (R)-5-(1-hydroxy-2-(9-(4-methyl-5-oxo-2,5-dihydrofuran-3-yl)-3,9-diazaspiro[5.5]undecan-3-yl)ethyl)-4-methylisobenzofuran-1(3H)-one] | 13 nM |
| Cc1c([C@@H](O)CN2CCC3(CC2)CCN(C2=CC(=O)OC2)CC3)ccc2c1COC2=O [Example 8, (R)-5-(1-hydroxy-2-(9-(5-oxo-2,5-dihydrofuran-3-yl)-3,9-diazaspiro[5.5]undecan-3-yl)ethyl)-4-methylisobenzofuran-1(3H)-one] | 49 nM |
| COc1cc(C#N)ncc1[C@@H](O)CN1CCC2(CC1)CCN(C1=CC(=O)OC1)CC2 [Example 9, (R)-5-(1-hydroxy-2-(9-(5-oxo-2,5-dihydrofuran-3-yl)-3,9-diazaspiro[5.5]undecan-3-yl)ethyl)-4-methoxypicolinonitrile] | 220 nM |
| C[C@@H]1Cc2cc(C(O)CN3CCC4(CC3)CCN(C3=CC(=O)OC3)CC4)ccc2C(=O)O1 (stereo partly drawn) [Example 10, (3R)-6-(1-hydroxy-2-(9-(5-oxo-2,5-dihydrofuran-3-yl)-3,9-diazaspiro[5.5]undecan-3-yl)ethyl)-3-methylisochroman-1-one] | 596 nM |
| C[C@H]1Cc2cc([C@@H](O)CN3CCC4(CC3)CCN(C3=CC(=O)OC3)CC4)ccc2C(=O)O1 [Example 11, (S)-6-((R)-1-hydroxy-2-(9-(5-oxo-2,5-dihydrofuran-3-yl)-3,9-diazaspiro[5.5]undecan-3-yl)ethyl)-3-methylisochroman-1-one] | 180 nM |

| SMILES | IC50 |
| --- | --- |
| C[C@H]1Cc2cc([C@H](O)CN3CCC4(CC3)CCN(C3=CC(=O)OC3)CC4)ccc2C(=O)O1 [Example 12, (S)-6-((S)-1-hydroxy-2-(9-(5-oxo-2,5-dihydrofuran-3-yl)-3,9-diazaspiro[5.5]undecan-3-yl)ethyl)-3-methylisochroman-1-one] | 685 nM |
| Cc1nc(-n2cnnn2)ccc1[C@@H](O)CN1CCC2(CC1)CCN(C1=CC(=O)OC1)CC2 [Example 13, (R)-4-(9-(2-hydroxy-2-(2-methyl-6-(1H-tetrazol-1-yl)pyridin-3-yl)ethyl)-3,9-diazaspiro[5.5]undecan-3-yl)furan-2(5H)-one] | 14 nM |
| Cc1nc(-n2cnnn2)ccc1[C@H](O)CN1CCC2(CC1)CCN(C1=CC(=O)OC1)CC2 [Example 14, (S)-4-(9-(2-hydroxy-2-(2-methyl-6-(1H-tetrazol-1-yl)pyridin-3-yl)ethyl)-3,9-diazaspiro[5.5]undecan-3-yl)furan-2(5H)-one] | 24 nM |
| O=C1C=C(N2CCC3(CCN(CC(O)c4cnc(-n5cnnn5)nc4)CC3)CC2)CO1 (stereo not shown) [Example 15, 4-(9-(2-(2-(1H-tetrazol-1-yl)pyrimidin-5-yl)-2-hydroxyethyl)-3,9-diazaspiro[5.5]undecan-3-yl)furan-2(5H)-one] | 443 nM |
| O=C1C=C(N2CCC3(CCN(C[C@H](O)c4ccc(-n5cnnn5)nn4)CC3)CC2)CO1 [Example 16, (S)-4-(9-(2-(6-(1H-tetrazol-1-yl)pyridazin-3-yl)-2-hydroxyethyl)-3,9-diazaspiro[5.5]undecan-3-yl)furan-2(5H)-one] | 41 nM |
| O=C1C=C(N2CCC3(CCN(C[C@@H](O)c4ccc(-n5cnnn5)nn4)CC3)CC2)CO1 [Example 17, (R)-4-(9-(2-(6-(1H-tetrazol-1-yl)pyridazin-3-yl)-2-hydroxyethyl)-3,9-diazaspiro[5.5]undecan-3-yl)furan-2(5H)-one] | 91 nM |
| O=C1C=C(N2CCC3(CCN(C[C@H](O)c4ccc(-n5cnnn5)nc4)CC3)CC2)CO1 [Example 18, (R)-4-(9-(2-(6-(1H-tetrazol-1-yl)pyridin-3-yl)-2-hydroxyethyl)-3,9-diazaspiro[5.5]undecan-3-yl)furan-2(5H)-one] | 16 nM |
| O=C1C=C(N2CCC3(CCN(C[C@@H](O)c4ccc(-n5cnnn5)nc4)CC3)CC2)CO1 [Example 19, (S)-4-(9-(2-(6-(1H-tetrazol-1-yl)pyridin-3-yl)-2-hydroxyethyl)-3,9-diazaspiro[5.5]undecan-3-yl)furan-2(5H)-one] | 74 nM |
| Cc1cc(-n2cnnn2)cnc1[C@@H](O)CN1CCC2(CC1)CCN(C1=CC(=O)OC1)CC2 [Example 20, (S)-4-(9-(2-hydroxy-2-(3-methyl-5-(1H-tetrazol-1-yl)pyridin-2-yl)ethyl)-3,9-diazaspiro[5.5]undecan-3-yl)furan-2(5H)-one] | 98 nM |
| O=C1C=C(N2CCC3(CCN(C[C@H](O)c4ccc(-n5cnnn5)cc4F)CC3)CC2)CO1 [Example 22, (R)-4-(9-(2-(2-fluoro-4-(1H-tetrazol-1-yl)phenyl)-2-hydroxyethyl)-3,9-diazaspiro[5.5]undecan-3-yl)furan-2(5H)-one] | 17 nM |
| O=C1C=C(N2CCC3(CCN(C[C@@H](O)c4ccc(-n5cnnn5)cc4F)CC3)CC2)CO1 [Example 23, (S)-4-(9-(2-(2-fluoro-4-(1H-tetrazol-1-yl)phenyl)-2-hydroxyethyl)-3,9-diazaspiro[5.5]undecan-3-yl)furan-2(5H)-one] | 28 nM |
| Cc1cc(-n2cnnn2)ccc1[C@@H](O)CN1CCC2(CC1)CCN(C1=CC(=O)OC1)CC2 [Example 24, (R)-4-(9-(2-hydroxy-2-(2-methyl-4-(1H-tetrazol-1-yl)phenyl)ethyl)-3,9-diazaspiro[5.5]undecan-3-yl)furan-2(5H)-one] | 40 nM |
| Cc1cc(-n2cnnn2)ccc1[C@H](O)CN1CCC2(CC1)CCN(C1=CC(=O)OC1)CC2 [Example 25, (S)-4-(9-(2-hydroxy-2-(2-methyl-4-(1H-tetrazol-1-yl)phenyl)ethyl)-3,9-diazaspiro[5.5]undecan-3-yl)furan-2(5H)-one] | 22 nM |
| Cc1nc(-n2cnnn2)ccc1[C@@H](O)CN1CCC2(CC1)CCN(C1=CC(=O)OC1)C(=O)C2 [Example 26, (R)-9-(2-hydroxy-2-(2-methyl-6-(1H-tetrazol-1-yl)pyridin-3-yl)ethyl)-3-(5-oxo-2,5-dihydrofuran-3-yl)-3,9-diazaspiro[5.5]undecan-2-one] | 48 nM |
| Cc1c([C@@H](O)CN2CCC3(CC2)CCN(C2=CC(=O)OC2)C(=O)C3)ccc2c1COC2=O [Example 27, (R)-9-(2-hydroxy-2-(4-methyl-1-oxo-1,3-dihydroisobenzofuran-5-yl)ethyl)-3-(5-oxo-2,5-dihydrofuran-3-yl)-3,9-diazaspiro[5.5]undecan-2-one] | 433 nM |
